The values that follow come from patent US9439414B2, “Sperm diluent solution and method for artificial insemination using same” (HIROSHIMA UNIVERSITY, priority 2009, dated 2016).

For data set [1], the system named is pig sperm. Nature of the data set: Sperm acrosomal damage rate (FITC-peanut lectin staining). It counts as cell-based. Particulars: EGTA 0, 3, 6, 9 mM in Modena solution. The method, then: 0-mM-EGTA medium, 3-mM-EGTA medium, 6-mM-EGTA medium and 9-mM-EGTA medium were prepared. As the 0-mM-EGTA medium, Modena solution was used as it is. Further, the 3-mM-EGTA medium, 6-mM-EGTA medium and 9-mM-EGTA medium were prepared by adding EGTA to Modena solution to attain EGTA concentrations of 3 mM, 6 mM and 9 mM, respectively, in the medium. Since addition of EGTA results in more acidic pH of the medium, NaOH was added to the medium to adjust pH to 7.0 to 7.1.
To each medium, frozen sperm were added after thawing as in Experimental Example 1, and the sperm was cultured. The culturing time was 1 hour, 3 hours or 6 hours.
The measurement of the sperm motility and detection of phosphorylation of tyrosine residues of the sperm proteins were carried out in the same manner as described above. The measurement of the sperm acrosomal damage rate was carried out as follows. On a slide glass, 5 μl of the medium was smeared, followed by air drying and 10 minutes of fixation with 99% methanol. After drying the methanol, marking was done with a liquid pen. FITC-peanut lectin was added to the smeared sperm (about 30 μl per sample), followed by 30 minutes of incubation at 37° C. in a moist atmosphere. Thereafter, the sperm were washed with PBS (5 minutes×3 times) and embedded in DAPI (VECTOR, VECTASHIELD with DAPI, H-1200) and then in manicure, followed by observation of the sperm.

Data set [2] concerns pig sperm. Nature of the data set: Sperm motility by motility analyzer (CASA). It is filed as cell-based. Particulars: EGTA 0, 3, 6, 9 mM added to Modena solution (6.3 mM EDTA); 1, 3 or 6 hours. The method, then: Media having concentrations of EDTA of 0 mM, 3 mM, 6.3 mM and 12 mM were prepared. The 0-mM-EDTA medium and the 3-mM-EDTA medium were prepared by removing EDTA-2Na from Modena solution and adjusting the EDTA concentration to 0 mM and 3 mM, respectively. As the 6.3-mM-EDTA medium, Modena solution was used as it is. Further, the 12-mM-EDTA medium was prepared by adding EDTA-2Na to Modena solution to attain an EDTA concentration of 12 mM.
To each medium, frozen sperm were added after thawing as in Experimental Example 1, and the sperm were cultured. The culturing time was 1 hour, 3 hours or 6 hours.
After the culture, the sperm motility was calculated using a motility analyzer (computer-assisted sperm motility analysis (CASA) system). On a plate prewarmed to 38° C., 5 μl of the medium after the culture was placed, and the ratio of moving sperm was analyzed using a computer.
0-mM-EGTA medium, 3-mM-EGTA medium, 6-mM-EGTA medium and 9-mM-EGTA medium were prepared. As the 0-mM-EGTA medium, Modena solution was used as it is. Further, the 3-mM-EGTA medium, 6-mM-EGTA medium and 9-mM-EGTA medium were prepared by adding EGTA to Modena solution to attain EGTA concentrations of 3 mM, 6 mM and 9 mM, respectively, in the medium. Since addition of EGTA results in more acidic pH of the medium, NaOH was added to the medium to adjust pH to 7.0 to 7.1. […]

Data set [3] has as its system mother pigs and piglets. Description: Health of mother pigs and piglets after artificial insemination with the cortisol-containing sperm diluent. It is filed as in vivo, pig. As to conditions: 5 μg cortisol injected to the uterus. Here is the method: Although the above adrenocortical hormone (a steroid hormone such as cortisol) is usually injected at a dose of 5 to 50 mg per individual for therapy of livestock, only 5 μg was injected to the uterus in the artificial insemination of the present Example. Thus, since this dose is about 1,000 to 10,000 times smaller than the dose in the cases of therapeutic use, it is thought that the meat of the mother pig and the fetuses in the uterus are not affected.

Regarding `O=C(O)CN(CCOCCOCCN(CC(=O)O)CC(=O)O)CC(=O)O` [EGTA, ethylene glycol Bis(2-aminoethyl)-N,N,N′,N′-tetraacetic acid], the “sperm acrosomal damage rate (FIG. 5)” value in data set [1] is recorded as “low”. For the same compound, the “sperm motility (FIG. 3)” value in data set [2] is reported as “high”.
Regarding `C[C@]12CCC(=O)C=C1CC[C@@H]1[C@@H]2[C@@H](O)C[C@@]2(C)[C@H]1CC[C@]2(O)C(=O)CO` [cortisol], the “deformed piglets after the delivery” value in data set [3] is recorded as “no deformed piglet was found”.
